For three compounds, IC50 results are on record in ChEMBL document CHEMBL3886883, “Cyclic amines” (2016).

For the test, the target named is T1, P2X purinoceptor 7 (Homo sapiens, UniProt Q99572).
T1 sequence (Q99572 whole entry): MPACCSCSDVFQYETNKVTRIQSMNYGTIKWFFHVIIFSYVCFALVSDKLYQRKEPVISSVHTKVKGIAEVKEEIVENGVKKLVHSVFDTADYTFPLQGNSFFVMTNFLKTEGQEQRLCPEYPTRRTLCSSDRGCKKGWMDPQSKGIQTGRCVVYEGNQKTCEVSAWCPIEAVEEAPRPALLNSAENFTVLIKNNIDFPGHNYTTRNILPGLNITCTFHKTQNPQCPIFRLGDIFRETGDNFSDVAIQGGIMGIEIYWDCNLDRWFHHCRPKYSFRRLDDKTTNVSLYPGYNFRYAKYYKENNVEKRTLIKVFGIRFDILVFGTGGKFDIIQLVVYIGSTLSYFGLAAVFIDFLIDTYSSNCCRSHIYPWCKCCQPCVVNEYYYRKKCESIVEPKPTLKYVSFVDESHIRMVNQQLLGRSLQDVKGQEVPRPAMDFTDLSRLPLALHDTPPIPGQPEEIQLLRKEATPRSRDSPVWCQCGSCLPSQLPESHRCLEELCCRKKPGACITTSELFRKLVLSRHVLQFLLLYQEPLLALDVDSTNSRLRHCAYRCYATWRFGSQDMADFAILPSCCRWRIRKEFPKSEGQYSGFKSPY
As to the kind of experiment: Fluorescent Imaging Plate Reader (FLIPR) Assay: Briefly, 293-human or mouse P2X7 stable cells were incubated in sucrose buffer, pH 7.4 [KCl (5 mM), NaH2PO42H2O (9.6 mM), HEPES (25 mM), sucrose (280 mM), glucose (5 mM), CaCl2 (0.5 mM), and probenecid (0.1425 g in 3 mL 1N NaOH was added for 500 mL solution)] in 384-well plates. 93-rat P2X7 stable cells were incubated in HHPB (pH 7.4) [consisting of Hank's BSS (1X); HEPES (pH 7.4) (20 mM) (Sigma); probenecid (0.710 g/5 mL 1N NaOH) (Sigma); and BSA (0.05%) (Roche) which was added after the pH had been adjusted] in 384-well plates. Fluo-4 NW dye mix (Molecular Probes, Inc., Eugene, Oreg., USA) was prepared in buffer (see manufacturer's instructions). Cell plates were removed from the 37° C. incubator, the media discarded and then 30 μL of dye was added to each well. Plates were placed in the 37° C., non-CO2 incubator for 30 minutes and then room temperature for 30 minutes. Two sets of drug plates were prepared: A) Mixtures of compound plus agonist were prepared as follows, in order to determine close response: BzATP: 11 point ½ log, diluted in buffer, starting from 1 mM. Testing compounds: 11 point ½ log, diluted in 2% DMSO buffer starting from 10 μM. B) Agonist only mixture was prepared with BzATP at a single concentration in buffer (concentration determined by dose response). Compound mixtures (A) were added to assay plates containing cells and placed at room temperature for 30 minutes, then BzATP (B) was added. Fluorescence was read using the Tetra FLIPR® (Molecular Devices, Inc., Sunnyvale, Calif., USA) and IC50 values were calculated by standard methods to determine antagonist activity. Type of test: cell-based.

In general, IC50 refers to the concentration at which inhibition is half-maximal.

On to `COc1ccc(C(CNC(=O)c2cc(C)ccc2Cl)N2CCCCC2)cc1` (stereo not drawn), for which the IC50 is 650 nM.
Under `Cc1ccc(Cl)c(C(=O)NCC(c2ccc(F)cc2)N2CCOCC2)c1` (stereo not drawn) stands 21 nM.
Regarding `COc1ccc(C(CNC(=O)c2cc(C)ccc2Cl)N2CCOCC2)cc1` (stereo not drawn), the IC50 is 59 nM.
